From paper PMC7569237 (Translational Oncology, 2020)

Experiment: Plasma and tumor levels in MIA PaCa-2 tumor-bearing nude mice
Format: in vivo
Settings: MIA PaCa-2-bearing mice, CPT-11 10 mg/kg iv; SN38 = released from CPT-11

| Time within which concentrations rapidly decreased in plasma and tumor | Structure (SMILES) |
| --- | --- |
| ≤ 48 h | CCc1c2c(nc3ccc(OC(=O)N4CCC(N5CCCCC5)CC4)cc13)-c1cc3c(c(=O)n1C2)COC(=O)[C@]3(O)CC [CPT-11, 7-ethyl-10-[4-(1-piperidino)-1-piperidino]carbonyloxycamptothecin] |
| ≤ 48 h | CCc1c2c(nc3ccc(O)cc13)-c1cc3c(c(=O)n1C2)COC(=O)[C@]3(O)CC [SN38, 7-ethyl-10-hydroxycamptothecin] |
